Laboratory results reported in patent US20220226337A1 (Gilead Sciences, Inc., priority 2018, published 2022).

Target: T1, α4β7 integrin interaction with MadCAM-1 (RPMI8866 cells) (Homo sapiens, UniProt P13612+P26010)
T1 construct: α4β7 integrin expressing cells; endogenous in cells; host or cells: RPMI8866 cells
T1 sequence (P13612 34-1032): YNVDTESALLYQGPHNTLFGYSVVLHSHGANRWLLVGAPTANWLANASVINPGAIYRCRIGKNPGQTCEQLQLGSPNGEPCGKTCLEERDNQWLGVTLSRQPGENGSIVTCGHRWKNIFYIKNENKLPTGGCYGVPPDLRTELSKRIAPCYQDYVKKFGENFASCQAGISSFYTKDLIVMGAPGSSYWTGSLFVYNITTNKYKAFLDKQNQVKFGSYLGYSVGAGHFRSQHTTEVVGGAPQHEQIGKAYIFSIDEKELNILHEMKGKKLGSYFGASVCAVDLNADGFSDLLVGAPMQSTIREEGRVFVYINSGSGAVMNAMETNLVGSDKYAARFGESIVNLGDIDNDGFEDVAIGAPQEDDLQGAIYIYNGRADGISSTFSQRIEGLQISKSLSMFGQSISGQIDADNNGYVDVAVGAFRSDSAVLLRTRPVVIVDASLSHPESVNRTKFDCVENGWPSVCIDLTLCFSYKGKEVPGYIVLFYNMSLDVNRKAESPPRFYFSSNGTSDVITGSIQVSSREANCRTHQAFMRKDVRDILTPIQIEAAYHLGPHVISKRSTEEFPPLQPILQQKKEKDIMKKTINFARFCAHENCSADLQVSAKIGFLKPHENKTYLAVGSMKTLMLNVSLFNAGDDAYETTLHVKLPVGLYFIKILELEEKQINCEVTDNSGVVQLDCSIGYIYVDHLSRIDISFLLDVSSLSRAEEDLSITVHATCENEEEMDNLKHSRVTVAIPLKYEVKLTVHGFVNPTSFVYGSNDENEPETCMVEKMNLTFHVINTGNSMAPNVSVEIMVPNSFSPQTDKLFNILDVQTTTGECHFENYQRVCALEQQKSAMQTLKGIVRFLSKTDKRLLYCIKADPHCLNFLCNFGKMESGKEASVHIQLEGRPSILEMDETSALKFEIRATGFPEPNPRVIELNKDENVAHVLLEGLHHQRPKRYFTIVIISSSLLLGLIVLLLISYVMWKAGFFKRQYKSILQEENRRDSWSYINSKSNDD
T1 sequence (P26010 20-798): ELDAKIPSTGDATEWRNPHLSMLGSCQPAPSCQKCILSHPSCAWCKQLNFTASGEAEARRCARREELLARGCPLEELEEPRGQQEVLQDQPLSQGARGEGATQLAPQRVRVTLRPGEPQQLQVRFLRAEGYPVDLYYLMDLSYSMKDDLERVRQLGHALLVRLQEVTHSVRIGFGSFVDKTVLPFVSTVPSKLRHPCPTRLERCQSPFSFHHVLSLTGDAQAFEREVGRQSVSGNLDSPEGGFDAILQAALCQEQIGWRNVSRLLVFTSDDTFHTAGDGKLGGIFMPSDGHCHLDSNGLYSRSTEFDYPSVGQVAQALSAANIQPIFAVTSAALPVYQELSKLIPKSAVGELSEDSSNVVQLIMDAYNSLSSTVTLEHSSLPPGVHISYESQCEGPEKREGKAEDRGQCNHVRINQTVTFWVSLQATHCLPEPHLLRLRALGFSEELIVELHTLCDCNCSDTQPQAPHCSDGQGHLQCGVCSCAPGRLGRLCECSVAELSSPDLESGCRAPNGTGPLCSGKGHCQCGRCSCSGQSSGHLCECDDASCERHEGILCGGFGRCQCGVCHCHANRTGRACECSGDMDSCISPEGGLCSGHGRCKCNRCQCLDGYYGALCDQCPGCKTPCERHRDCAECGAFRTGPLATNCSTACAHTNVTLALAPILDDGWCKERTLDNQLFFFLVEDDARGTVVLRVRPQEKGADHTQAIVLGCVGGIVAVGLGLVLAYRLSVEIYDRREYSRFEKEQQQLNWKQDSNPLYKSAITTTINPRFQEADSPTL
Assay: α4β7 Integrin Cell Capture Assay
Type: cell-based
Settings: capture of α4β7 integrin expressing RPMI8866 cells on recombinant MadCAM-1 extracellular domain-coated plate; 0.5 mM MnCl2
In short: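 RPMI8866 cells (0.5×10^6 cells/mL in DMEM + 0.5% FBS + 0.5 mM MnCl2) preincubated with compound 1 h at 37 °C, then allowed to adhere 30 min at 37 °C to plates coated with MAdCAM-1 extracellular domain (1.0 μg/mL). Bound cells fixed with 2% glutaraldehyde, Hoechst-stained, imaged and counted; EC50 from cell count versus concentration.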

SMILES	EC50
COc1cccc(OC)c1-c1ccc(CC(NC(=O)c2c(F)cc(NS(=O)(=O)c3ccc(-n4cncn4)cc3)cc2F)C(=O)O)c2c1CN(C(C)=O)CC2 (stereo not drawn) [Example 107]	812 pM
Cc1cc(N2CCC2)c(-c2ccc(C[C@H](NC(=O)c3c(F)cc(N4CCOC[C@@H]4C(F)(F)F)cc3F)C(=O)O)c3c2OCCC3)c(=O)n1C (atropisomer, axis not shown) [Example 152]	791 pM
C[C@@H](Nc1cc(F)c(C(=O)N[C@@H](Cc2ccc(-c3c(Cl)cc(C#N)cc3Cl)c3c2CCCO3)C(=O)O)c(F)c1)C(F)(F)F [Example 91, (S)-3-(8-(2,6-dichloro-4-cyanophenyl)chroman-5-yl)-2-(2,6-difluoro-4-(((R)-1,1,1-trifluoropropan-2-yl)amino)benzamido)propanoic acid]	11000 pM
Cn1nc(C(F)(F)F)cc(-c2ccc(C[C@H](NC(=O)c3c(F)cc(N4CCOC[C@@H]4C(F)(F)F)cc3F)C(=O)O)c3c2OCCC3)c1=O [Example 133]	1420 pM
CC[C@@H](Nc1cc(F)c(C(=O)N[C@@H](Cc2ccc(-c3c(C)c4cc(F)ccc4n(C)c3=O)c3c2CCCO3)C(=O)O)c(F)c1)C(F)(F)F [Example 33, (S)-2-(2,6-difluoro-4-(((R)-1,1,1-trifluorobutan-2-yl)amino)benzamido)-3-(8-(6-fluoro-1,4-dimethyl-2-oxo-1,2-dihydroquinolin-3-yl)chroman-5-yl)propanoic acid]	2720 pM
Cc1c(-c2ccc(C[C@H](NC(=O)c3c(F)cccc3F)C(=O)O)c3c2COC3)c(=O)n(C)c(=O)n1C [Example 18, (S)-2-(2,6-difluorobenzamido)-3-(7-(1,3,6-trimethyl-2,4-dioxo-1,2,3,4-tetrahydropyrimidin-5-yl)-1,3-dihydroisobenzofuran-4-yl)propanoic acid]	5220 pM
Cc1c(-c2ccc(C[C@H](NC(=O)c3c(Cl)cccc3Cl)C(=O)O)c3c2OCCC3)c(=O)n(C)c2ccccc12 [Example 60, (S)-2-(2,6-dichlorobenzamido)-3-(8-(1,4-dimethyl-2-oxo-1,2-dihydroquinolin-3-yl)chroman-5-yl)propanoic acid]	4120 pM
Cc1c(-c2ccc(C[C@H](NC(=O)c3c(F)cccc3F)C(=O)O)c3c2OCCC3)c(=O)n(C)c2ccccc12 [Example 57, (S)-2-(2,6-difluorobenzamido)-3-(8-(1,4-dimethyl-2-oxo-1,2-dihydroquinolin-3-yl)chroman-5-yl)propanoic acid]	4190 pM
CC[C@@H](Nc1cc(F)c(C(=O)N[C@@H](Cc2ccc(-c3c(C)n(C)c(=O)n(C)c3=O)c3c2OCCO3)C(=O)O)c(F)c1)C(F)(F)F [Example 10, (S)-2-(2,6-difluoro-4-(((R)-1,1,1-trifluorobutan-2-yl)amino)benzamido)-3-(8-(1,3,6-trimethyl-2,4-dioxo-1,2,3,4-tetrahydropyrimidin-5-yl)-2,3-dihydrobenzo[b][1,4]dioxin-5-yl)propanoic acid]	864 pM
O=C(N[C@@H](Cc1ccc(-c2c(Cl)cc(F)cc2Cl)c2c1OCCO2)C(=O)O)c1c(F)cccc1OC(F)F [Example 6, (S)-3-(8-(2,6-dichloro-4-fluorophenyl)-2,3-dihydrobenzo[b][1,4]dioxin-5-yl)-2-(2-(difluoromethoxy)-6-fluorobenzamido)propanoic acid]	444000 pM
Cn1c(=O)c(-c2ccc(C[C@H](NC(=O)c3c(F)cccc3F)C(=O)O)c3c2OCCO3)cc2ccccc21 [Example 1, (S)-2-(2,6-difluorobenzamido)-3-(8-(1-methyl-2-oxo-1,2-dihydroquinolin-3-yl)-2,3-dihydrobenzo[b][1,4]dioxin-5-yl)propanoic acid]	11000 pM
CCOCc1cc(OC)c(-c2ccc(C[C@H](NC(=O)c3c(F)cc(NS(=O)(=O)c4ccc(-c5ccnc(F)c5)cc4)cc3F)C(=O)O)c3c2CCCO3)c(OC)c1 [Example 100, (S)-2-(2,6-difluoro-4-((4-(2-fluoropyridin-4-yl)phenyl)sulfonamido)benzamido)-3-(5-(4-(ethoxymethyl)-2,6-dimethoxyphenyl)chroman-8-yl)propanoic acid]	1670 pM
Cc1cc(C)n(C)c(=O)c1-c1ccc(C[C@H](NC(=O)c2c(F)cc(N3CCOC[C@@H]3C(F)(F)F)cc2F)C(=O)O)c2c1COC2 [Example 27, (S)-2-(2,6-difluoro-4-((R)-3-(trifluoromethyl)morpholino)benzamido)-3-(7-(1,4,6-trimethyl-2-oxo-1,2-dihydropyridin-3-yl)-1,3-dihydroisobenzofuran-4-yl)propanoic acid]	822 pM
O=C(N[C@@H](Cc1ccc(-c2ncc3ccccc3c2Br)c2c1CCCO2)C(=O)O)c1c(F)cccc1F [Example 65, (S)-3-(8-(4-bromoisoquinolin-3-yl)chroman-5-yl)-2-(2,6-difluorobenzamido)propanoic acid]	19600 pM

The next lines start with the values.

EC50	SMILES
65 pM	Cn1c(=O)n(-c2ccc(C[C@H](NC(=O)c3c(F)cc(N4CCOC[C@@H]4C(F)(F)F)cc3F)C(=O)O)c3c2OCCC3)c(=O)c2ccncc21 [Example 124]
56 pM	Cc1cc(N2CCOC[C@@H]2C(F)(F)F)cc(F)c1C(=O)N[C@@H](Cc1ccc(-n2c(=O)c3ccncc3n(C)c2=O)c2c1OCCO2)C(=O)O [Example 173]
780 pM	Cc1cc(-c2ccc(C[C@H](NC(=O)c3c(F)cc(N4CCOC[C@@H]4C(F)(F)F)cc3F)C(=O)O)c3c2OCCC3)c(=O)n(C)c1C [Example 162]
760 pM	Cc1cc(-c2ccc(C[C@H](NC(=O)c3c(F)cc(N4CCOC[C@@H]4C(F)(F)F)cc3F)C(=O)O)c3c2OCCC3)c(=O)n(C)n1 [Example 148]
260 pM	Cc1nc(-c2ccc(C[C@H](NC(=O)c3c(F)cc(N4CCOC[C@@H]4C(F)(F)F)cc3F)C(=O)O)c3c2OCCC3)c(=O)n(C)c1C [Example 108, (S)-2-(2,6-difluoro-4-((R)-3-(trifluoromethyl)morpholino)benzamido)-3-(8-(4,5,6-trimethyl-3-oxo-3,4-dihydropyrazin-2-yl)chroman-5-yl)propanoic acid]
142 pM	Cc1nc(C)n(C)c(=O)c1-c1ccc(C[C@H](NC(=O)c2c(F)cc(N3CCOC[C@@H]3C(F)(F)F)cc2F)C(=O)O)c2c1OCCC2 (atropisomer, axis not shown) [Example 118]
81 pM	COc1cc(C)n(C)c(=O)c1-c1ccc(C[C@H](NC(=O)c2c(C)cc(N3CCOC[C@@H]3C(F)(F)F)cc2F)C(=O)O)c2c1CCC2 [Example 198]
338 pM	Cn1c(=O)c(-c2ccc(C[C@H](NC(=O)c3c(F)cc(N4CCOC[C@@H]4C(F)(F)F)cc3F)C(=O)O)c3c2COC3)cc2cnccc21 [Example 190]
193 pM	Cn1ncc(C(F)(F)F)c(-c2ccc(C[C@H](NC(=O)c3c(F)cc(N4CCOC[C@@H]4C(F)(F)F)cc3F)C(=O)O)c3c2OCCC3)c1=O [Example 132]
731 pM	Cc1cn(C)c(=O)c(-c2ccc(C[C@H](NC(=O)c3c(C)cc(N4CCOC[C@@H]4C(F)(F)F)cc3F)C(=O)O)c3c2OCCC3)n1 [Example 163]
